Reference: patent US20070134261A1, “Effectors of innate immunity” (priority 2001, published 2007)
Read-outs that look alike come from different tables or passages of the source. No end group written: not given here.

What was measured:
[1] = system: human PBMC; assay: TLR agonist / cytokine induced cytokine secretion by PBMC (ELISA, multiplex bead immunoassay); type: cell-based
Description: All assays were performed in triplicate.

[2] = system: human bronchial epithelial cells (HBE); assay: LDH release assay (Cytotoxicity Detection Kit); type: cell-based; conditions: 24 hours; for LDH Release (OD490 nm): 100 μg/ml, no peptide control 1.0 ± 0.05; for toxicity / membrane damage: as measured by both assays (LDH, WST-1), HBE cells
Description: (§1) The potential toxicity of the peptides was measured in two ways. First, the Cytotoxicity Detection Kit (Roche) (Lactate dehydrogenase-LDH) Assay was used. It is a colorimetric assay for the quantification of cell death and cell lysis, based on the measurement of LDH activity released from the cytosol of damaged cells into the supernatant. LDH is a stable cytoplasmic enzyme present in all cells and it is released into the cell culture supernatant upon damage of the plasma membrane. An increase in the amount of dead or plasma membrane-damaged cells results in an increase of the LDH enzyme activity in the culture supernatant as measured with an ELISA plate reader, OD490 nm (the amount of color formed in the assay is proportional to the number of lysed cells). In this assay, human bronchial epithelial cells (I6HBEo14, HBE) cells were incubated with 100 μg of peptide for 24 hours, the supernatant removed and tested for LDH. The other assay used to measure toxicity of the cationic peptides was the WST-1 assay (Roche). This assay is a colorimetric assay for the quantification of cell proliferation and cell viability, based on the cleavage of the tetrazolium salt WST-1 by mitochondrial dehydrogenases in viable cells (a non-radioactive alternative to the [^3H]-thymidine incorporation assay). In this assay, HBE cells were incubated with 100 μg of peptide for 24 hours, and then 10 μl/well Cell Proliferation Reagent WST-1 was added. The cells are incubated with the reagent and the plate is then measured with an ELISA plate reader, OD490 nm.

[3] = system: HBE cells; assay: WST-1 assay (cell viability); type: cell-based, human
Description: as §1

[4] = system: A549 epithelial cells; assay: Human Operon arrays (PRHU04-S1) of A549 cells treated with peptide alone (Tables 31-37, 53); conditions: peptide 50 μg/ml, 4 h, A549 cells
[5] = type: cell-based
[6] = Citobacter rhodensis, overnight, 96-well plate
[7] = Enterohaemorrhagic E. coli, overnight, 96-well plate
[8] = Escherichia coli, overnight, 96-well plate
[9] = Pseudomonas aeruginosa, overnight, 96-well plate
[10] = Salmonella enteritidis ssp. typhimurium, overnight, 96-well plate

Substance	LDH Release (OD490 nm) [2]	OD490 nm (WST-1 cell viability) [3]	MIC, C. rhod. ([5]; 24 h)	MIC, E. coli ([5]; 24 h)	MIC, EHEC ([5]; 24 h)	MIC, P. aerug. ([5]; 24 h)	MIC, S. aureus ([5]; 24 h)	MIC, S. typhim. ([5]; 24 h)	also measured
5′-TCATGACGTTCCTGACGTT-3′ (chemistry not given here) [CpG, reference compound]	–	–	–	–	–	–	–	–	IL-6, Ave pg/ml ([1]; 4 hr, CpG −SEQ ID NO: 1): <7 pg/mL; IL-8, Ave pg/ml ([1]; 4 hr, CpG −SEQ ID NO: 1): 20 pg/mL; TNF-α, Ave pg/ml ([1]; 4 hr, CpG −SEQ ID NO: 1): 28 pg/mL; IL-6, Ave pg/ml ([1]; 24 hr, CpG −SEQ ID NO: 1): 66 pg/mL; IL-8, Ave pg/ml ([1]; 24 hr, CpG −SEQ ID NO: 1): 339 pg/mL; TNF-α, Ave pg/ml ([1]; 24 hr, CpG −SEQ ID NO: 1): 28 pg/mL
ELPLKRGRVPVE [SEQ ID NO: 16]	0.91 ± 0.04 OD490 nm	1.39 ± 0.26 OD490 nm	–	–	–	–	–	–	ID#:ctrl intensity ratio, M14565 cytochrome P450 [4]: 10.1
IL-1β	–	–	–	–	–	–	–	–	IL-6, Ave pg/ml ([1]; 4 hr, IL-1β −SEQ ID NO: 1): 39 pg/mL; IL-8, Ave pg/ml ([1]; 4 hr, IL-1β −SEQ ID NO: 1): 124 pg/mL; TNF-α, Ave pg/ml ([1]; 4 hr, IL-1β −SEQ ID NO: 1): 97 pg/mL; IL-6, Ave pg/ml ([1]; 24 hr, IL-1β −SEQ ID NO: 1): 645 pg/mL; IL-8, Ave pg/ml ([1]; 24 hr, IL-1β −SEQ ID NO: 1): 3034 pg/mL; TNF-α, Ave pg/ml ([1]; 24 hr, IL-1β −SEQ ID NO: 1): 20 pg/mL
KMKSFAKMLMLALKKVLKVLTTALTLKAGLPS [SEQ ID NO: 43]	4.3 ± 0.2 OD490 nm	0.46 ± 0.10 OD490 nm	8 µg/mL	8 µg/mL	4 µg/mL	16 µg/mL	128 µg/mL	16 µg/mL	toxicity / membrane damage [2]: did induce membrane damage
KNKAFAKMLMKALKKVTTAAKPLTG [SEQ ID NO: 44]	0.97 ± 0.03 OD490 nm	1.49 ± 0.39 OD490 nm	64 µg/mL	8 µg/mL	64 µg/mL	128 µg/mL	–	128 µg/mL	–
KQKLFAKMLMSALKKKTLVTTPLAGK [SEQ ID NO: 45]	0.98 ± 0.04 OD490 nm	1.54 ± 0.35 OD490 nm	16 µg/mL	8 µg/mL	16 µg/mL	128 µg/mL	–	128 µg/mL	–
KTKKFAKMLMMALKKVVSTAKPLAILS [SEQ ID NO: 42]	3.4 ± 0.2 OD490 nm	0.39 ± 0.08 OD490 nm	2 µg/mL	1.5 µg/mL	1 µg/mL	4 µg/mL	64 µg/mL	2 µg/mL	toxicity / membrane damage [2]: did induce membrane damage
KWKSFLRTFKSPVRTVFHTALKPISS [SEQ ID NO: 53]	103 ± 0.06 OD490 nm	1.51 ± 0.37 OD490 nm	–	–	–	–	–	–	MIC, C. rhod. [5, 6]: 16 µg/mL; MIC, EHEC [5, 7]: 8 µg/mL; MIC, E. coli [5, 8]: 4 µg/mL; MIC, P. aerug. [5, 9]: 8 µg/mL; MIC, S. typhim. [5, 10]: 8 µg/mL
KWKSYAHTIMSPVRLIFHTALKPISS [SEQ ID NO: 48]	0.95 ± 0.05 OD490 nm	0.93 ± 0.08 OD490 nm	–	–	–	–	–	–	MIC, C. rhod. [5, 6]: 1 µg/mL; MIC, EHEC [5, 7]: 2 µg/mL; MIC, E. coli [5, 8]: 16 µg/mL; MIC, P. aerug. [5, 9]: 128 µg/mL; MIC, S. typhim. [5, 10]: 16 µg/mL
LSRIAPAIPWAKL [SEQ ID NO: 10]	1.04 ± 0.04 OD490 nm	1.22 ± 0.05 OD490 nm	–	–	64 µg/mL	–	–	–	–
PAM3	–	–	–	–	–	–	–	–	IL-1β, Ave pg/ml ([1]; 4 hr, PAM3 −SEQ ID NO: 1): 34 pg/mL; IL-6, Ave pg/ml ([1]; 4 hr, PAM3 −SEQ ID NO: 1): 435 pg/mL; IL-8, Ave pg/ml ([1]; 4 hr, PAM3 −SEQ ID NO: 1): 738 pg/mL; TNF-α, Ave pg/ml ([1]; 4 hr, PAM3 −SEQ ID NO: 1): 830 pg/mL; IL-1β, Ave pg/ml ([1]; 24 hr, PAM3 −SEQ ID NO: 1): 512 pg/mL; IL-6, Ave pg/ml ([1]; 24 hr, PAM3 −SEQ ID NO: 1): 7734 pg/mL; IL-8, Ave pg/ml ([1]; 24 hr, PAM3 −SEQ ID NO: 1): 7620 pg/mL; TNF-α, Ave pg/ml ([1]; 24 hr, PAM3 −SEQ ID NO: 1): 2334 pg/mL
RAAFKWAWAWWRRK [SEQ ID NO: 23]	1.26 ± 0.46 OD490 nm	1.14 ± 0.24 OD490 nm	4 µg/mL	4 µg/mL	4 µg/mL	8 µg/mL	8 µg/mL	16 µg/mL	–
RAPYWPWAWARPRK [SEQ ID NO: 21]	1.06 ± 0.04 OD490 nm	1.28 ± 0.07 OD490 nm	32 µg/mL	64 µg/mL	32 µg/mL	96 µg/mL	64 µg/mL	64 µg/mL	–
RKMVKVDVRGIMIRKDRR [SEQ ID NO: 29]	0.99 ± 0.02 OD490 nm	1.75 ± 0.09 OD490 nm	32 µg/mL	2 µg/mL	4 µg/mL	–	–	16 µg/mL	–
RPAWKYWWPWPWPRRK [SEQ ID NO: 22]	1.29 ± 0.12 OD490 nm	1.33 ± 0.07 OD490 nm	4 µg/mL	8 µg/mL	4 µg/mL	24 µg/mL	12 µg/mL	8 µg/mL	ID#:ctrl intensity ratio, X65962 cytochrome P-450 [4]: 5.1
RPRYPWWPWWPYRPRK [SEQ ID NO: 19]	1.08 ± 0.02 OD490 nm	1.42 ± 0.15 OD490 nm	4 µg/mL	8 µg/mL	4 µg/mL	16 µg/mL	16 µg/mL	64 µg/mL	ID#:ctrl intensity ratio, X65962 cytochrome P-450 [4]: 3.8
RRAWWKAWWARRK [SEQ ID NO: 20]	1.05 ± 0.03 OD490 nm	1.61 ± 0.21 OD490 nm	16 µg/mL	8 µg/mL	8 µg/mL	8 µg/mL	8 µg/mL	8 µg/mL	–
RRDCRRVMVRGIDIKAK [SEQ ID NO: 36]	0.85 ± 0.04 OD490 nm	1.58 ± 0.05 OD490 nm	32 µg/mL	32 µg/mL	16 µg/mL	–	–	32 µg/mL	–
RREAIRRVAMRGRDMKRMRR [SEQ ID NO: 31]	0.98 ± 0.03 OD490 nm	1.84 ± 0.06 OD490 nm	–	–	64 µg/mL	128 µg/mL	–	–	–
RRRWKWAWPRRK [SEQ ID NO: 24]	1.05 ± 0.01 OD490 nm	1.27 ± 0.16 OD490 nm	16 µg/mL	16 µg/mL	4 µg/mL	4 µg/mL	16 µg/mL	16 µg/mL	–
